Values belong to the molecule of their own block, whether it stands above or below them. Active and inactive are the calls of the source.
Tests used:
[1] = target: Photoreceptor-specific nuclear receptor (Homo sapiens, UniProt Q9Y5X4); format: functional, cell-based;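 also: CHO-S cells with Gal4-NCOR and VP16-NR2E3 two-hybrid luciferase reporter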
[2] = target: Hepatocyte nuclear factor 4-alpha (Homo sapiens, UniProt P41235); format: functional, cell-based;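 also: biochemical luminescence-based dose-response counterscreen measuring inhibition of HNF4 dimerization, run alongside a screen for blockers of ABHD5–perilipin-5 interaction; split luciferase complementation of HNF4 fusion proteins in cell lysate measuring dimerization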
HeLa = assay: viability loss in HeLa cells – cell-based, ATP luminescence, cherry-pick samples, cytotoxicity control, dose response (AID 687004); format: functional; settings: Homo sapiens
[3] = T. cruzi growth inhibition in host cells, dose response, cell-based, plate reader, dry powder, set 2 (AID 652275); format: functional
[4] = target: T1, Sentrin-specific protease 1 (Homo sapiens, UniProt Q9P0U3); assay: SENP1 catalytic domain blockers, concentration series – biochemical, kinetic FRET, dose response (AID 651697); format: functional; settings: read-out: IC50_Mean
T1 sequence (Q9P0U3 whole entry): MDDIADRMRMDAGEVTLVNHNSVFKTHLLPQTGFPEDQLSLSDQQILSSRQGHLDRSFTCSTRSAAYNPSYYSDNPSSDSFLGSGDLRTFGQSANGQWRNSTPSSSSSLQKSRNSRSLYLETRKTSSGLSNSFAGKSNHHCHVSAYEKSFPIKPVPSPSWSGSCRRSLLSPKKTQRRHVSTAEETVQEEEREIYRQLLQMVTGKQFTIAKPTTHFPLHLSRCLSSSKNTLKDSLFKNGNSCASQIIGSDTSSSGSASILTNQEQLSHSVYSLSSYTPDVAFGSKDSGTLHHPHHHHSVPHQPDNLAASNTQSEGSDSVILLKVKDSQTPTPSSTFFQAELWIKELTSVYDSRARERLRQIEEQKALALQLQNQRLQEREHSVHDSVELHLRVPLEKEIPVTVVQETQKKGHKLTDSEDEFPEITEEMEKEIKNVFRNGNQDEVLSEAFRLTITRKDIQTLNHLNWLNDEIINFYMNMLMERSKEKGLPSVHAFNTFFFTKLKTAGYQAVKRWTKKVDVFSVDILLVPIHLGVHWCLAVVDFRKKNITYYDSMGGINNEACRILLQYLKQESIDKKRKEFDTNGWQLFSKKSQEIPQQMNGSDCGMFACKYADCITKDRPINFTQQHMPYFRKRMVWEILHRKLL

[5] = target: T1, Sentrin-specific protease 1; assay: Dose response confirmation of small molecule inhibitors of the catalytic domain of the SUMO protease, SENP1 in a FRET assay.; format: functional; settings: read-out: IC50_Mean
cells [6] = format: functional, cell-based
cells [7] = format: functional, cell-based; remark: listed apart in the source
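For EC50 in this document: agonist potency from rise in intracellular calcium fluorescence.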

Photoreceptor-specific nuclear receptor, sequence (Q9Y5X4 whole entry, the tested form may be a part): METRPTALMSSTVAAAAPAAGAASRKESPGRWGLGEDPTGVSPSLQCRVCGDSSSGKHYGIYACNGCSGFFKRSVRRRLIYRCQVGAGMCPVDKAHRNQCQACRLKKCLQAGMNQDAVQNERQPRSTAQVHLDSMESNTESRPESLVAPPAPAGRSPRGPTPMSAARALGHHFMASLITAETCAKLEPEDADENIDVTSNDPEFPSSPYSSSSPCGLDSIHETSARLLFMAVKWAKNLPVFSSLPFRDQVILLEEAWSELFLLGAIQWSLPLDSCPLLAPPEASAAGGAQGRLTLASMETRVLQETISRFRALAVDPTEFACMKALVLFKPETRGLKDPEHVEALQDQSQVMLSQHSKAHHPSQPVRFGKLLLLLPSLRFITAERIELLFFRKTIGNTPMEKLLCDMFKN
Hepatocyte nuclear factor 4-alpha, sequence (P41235 whole entry, the tested form may be a part): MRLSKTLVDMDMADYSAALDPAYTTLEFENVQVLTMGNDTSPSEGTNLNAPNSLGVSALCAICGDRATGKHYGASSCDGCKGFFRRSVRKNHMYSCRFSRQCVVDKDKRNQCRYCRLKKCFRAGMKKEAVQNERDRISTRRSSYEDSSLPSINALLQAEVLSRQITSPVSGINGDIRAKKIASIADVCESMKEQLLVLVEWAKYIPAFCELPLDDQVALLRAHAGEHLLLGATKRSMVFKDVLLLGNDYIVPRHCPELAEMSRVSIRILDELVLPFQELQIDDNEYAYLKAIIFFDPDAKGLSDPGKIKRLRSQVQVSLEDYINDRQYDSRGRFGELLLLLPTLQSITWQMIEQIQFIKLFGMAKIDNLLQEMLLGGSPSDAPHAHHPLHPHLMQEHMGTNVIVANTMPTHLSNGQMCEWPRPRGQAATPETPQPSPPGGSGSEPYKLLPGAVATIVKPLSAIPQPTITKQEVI

IC50 [1]: 8.01 µM (active)
Compound: COc1ccc(NC(=O)c2sc(=O)n(Cc3ccc(F)c(Cl)c3)c2C)cc1OC

IC50 [2]: 12.5 µM (inactive)
Compound: COc1ccc(C(C(=O)Nc2ccc3c(c2)OCCO3)n2c(=O)c(-c3ccco3)nc3ccccc32)cc1 (centres undefined)

Compound: CC(C)NC(=O)Nc1ccc2c(c1)C(=O)N([C@@H](C)CO)C[C@H](C)[C@@H](CN(C)Cc1ccc3c(c1)OCO3)OCCCC[C@@H](C)O2
AC50 (HeLa): 19.5 µM (active)

Compound: CC(C)N1C[C@H](CN(C)Cc2ccc(Oc3ccccc3)cc2)Oc2c(NC(=O)c3ccncc3)cccc2C1=O
AC50 [3]: 0.00193 µM (active)

Compound: CN(C)C(=O)c1cccc(-c2ccc([C@H]3[C@H](CO)N4CCCCN(Cc5cccnc5)C[C@@H]34)cc2)c1
AC50 [3]: 0.481 µM (active)

IC50 [4]: 80 µM (inactive)
IC50 [5]: 20 µM (inactive)
Compound: CCOc1cccc(/C=C2\NC(=S)N(c3ccccc3)C2=O)c1O

Compound: Oc1ccc(/C=N/CCc2ccccc2)cc1
IC50 (cells [6]): > 29.9 µM (inactive)
EC50 (cells [7]): > 29.9 µM (inactive)
